Test results reported in PubChem BioAssay AID330 (DTP/NCI, 2004).
“And” between values parts separate entries of the source, which are not always exact repeats. Identical values can stand only once. Toxic doses and inconclusive results are not listed. The calls were made as follows: active = survival T/C of 150% or more; inactive = T/C below 125% in these data.

System: P388 leukemia ip, CD2F1 mice, survival T/C
Assay: NCI In Vivo Anticancer Drug Screen. Data for tumor model P388 Leukemia (intraperitoneal) in CD2F1 (CDF1) mice
Conditions: endpoint: median survival time, higher = longer survival
Method in brief: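 Mice carrying the transplanted tumor received test compound or vehicle. Survival was recorded in each group, and the value is the treated-group measurement divided by that of the vehicle-treated control group.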

[1] = dose: 60.0 mg/kg/injection, schedule: Q01DX005 (ip), vehicle: saline with Tween-80
[2] = dose: 120.0 mg/kg/injection, schedule: Q01DX005 (ip), vehicle: saline with Tween-80
[3] = dose: 240.0 mg/kg/injection, schedule: Q01DX005 (ip), vehicle: saline with Tween-80
[4] = dose: 100.0 mg/kg/injection, schedule: Q01DX009 (ip), vehicle: Klucel (hydroxypropylcellulose) (HPC)
[5] = dose: 25.0 mg/kg/injection, schedule: Q01DX009 (ip), vehicle: Klucel (hydroxypropylcellulose) (HPC)
[6] = dose: 50.0 mg/kg/injection, schedule: Q01DX005 (ip), vehicle: saline with Tween-80
[7] = dose: 100.0 mg/kg/injection, schedule: Q01DX005 (ip), vehicle: saline with Tween-80
[8] = dose: 12.5 mg/kg/injection, schedule: Q01DX009 (ip), vehicle: saline with Tween-80
[9] = dose: 25.0 mg/kg/injection, schedule: Q01DX009 (ip), vehicle: saline with Tween-80
[10] = dose: 100.0 mg/kg/injection, schedule: Q01DX001 (ip), vehicle: saline
[11] = dose: 200.0 mg/kg/injection, schedule: Q01DX001 (ip), vehicle: saline
[12] = dose: 400.0 mg/kg/injection, schedule: Q01DX001 (ip), vehicle: saline
[13] = dose: 50.0 mg/kg/injection, schedule: Q01DX009 (ip), vehicle: Klucel (hydroxypropylcellulose) (HPC)
[14] = dose: 200.0 mg/kg/injection, schedule: Q01DX005 (ip), vehicle: saline with Tween-80
[15] = dose: 50.0 mg/kg/injection, schedule: Q01DX009 (ip), vehicle: saline with Tween-80
[16] = dose: 100.0 mg/kg/injection, schedule: Q01DX009 (ip), vehicle: saline with Tween-80

Measured: T/C

CN1CCOc2c1cnn(CCO)c2=O
inactive: [1] 108 % of control | [2] 108 % of control | [3] 102 % of control

NNC(=O)C(=O)NNC1CCCCC1
inactive: [4] 101 % of control | dose: 200.0 mg/kg/injection, schedule: Q01DX009 (ip), vehicle: Klucel (hydroxypropylcellulose) (HPC) 104 % of control

N#CSc1ccc2nc(N)sc2c1
inactive: dose: 6.25 mg/kg/injection, schedule: Q01DX009 (ip), vehicle: Klucel (hydroxypropylcellulose) (HPC) 111 % of control | dose: 12.5 mg/kg/injection, schedule: Q01DX009 (ip), vehicle: Klucel (hydroxypropylcellulose) (HPC) 111 % of control | [5] 104 % of control

CC1=CCC2C3(C)C=CC(=O)C(C)(C)C3CC3OC(=O)C=C1C32C (configuration not stated)
inactive: dose: 0.75 mg/kg/injection, schedule: Q01DX009 (ip), vehicle: Klucel (hydroxypropylcellulose) (HPC) 102 % of control | dose: 1.5 mg/kg/injection, schedule: Q01DX009 (ip), vehicle: Klucel (hydroxypropylcellulose) (HPC) 98 % of control and 102 % of control | dose: 3.0 mg/kg/injection, schedule: Q01DX009 (ip), vehicle: Klucel (hydroxypropylcellulose) (HPC) 101 % of control | dose: 6.0 mg/kg/injection, schedule: Q01DX009 (ip), vehicle: Klucel (hydroxypropylcellulose) (HPC) 97 % of control | dose: 12.0 mg/kg/injection, schedule: Q01DX009 (ip), vehicle: Klucel (hydroxypropylcellulose) (HPC) 100 % of control and 97 % of control | dose: 24.0 mg/kg/injection, schedule: Q01DX009 (ip), vehicle: Klucel (hydroxypropylcellulose) (HPC) 100 % of control

N#Cc1ccccc1N=NNc1ccc(-c2nc(N)nc(N)n2)cc1
inactive: dose: 50.0 mg/kg/injection, schedule: Q04DX003 (ip), vehicle: saline 100 % of control | dose: 100.0 mg/kg/injection, schedule: Q04DX003 (ip), vehicle: saline 95 % of control | dose: 200.0 mg/kg/injection, schedule: Q04DX003 (ip), vehicle: saline 100 % of control

C=CC(C)(C)c1cc2cc3c(cc2oc1=O)OC1(C)CCC(C(C)(C)O)OC1C3 (configuration not stated)
inactive: dose: 12.5 mg/kg/injection, schedule: Q01DX005 (ip), vehicle: saline with Tween-80 99 % of control | dose: 25.0 mg/kg/injection, schedule: Q01DX005 (ip), vehicle: saline with Tween-80 99 % of control | [6] 93 % of control | [7] 89 % of control

COc1ccc(/C=C/Cc2cc3c(cc2O)OCO3)cc1
inactive: [1] 104 % of control | [2] 101 % of control | [3] 101 % of control

CC(=O)OC(C[N+](=O)[O-])C(Cl)(Cl)Cl (configuration not stated)
inactive: dose: 6.25 mg/kg/injection, schedule: Q01DX009 (ip), vehicle: saline with Tween-80 104 % of control | [8] 109 % of control | [9] 100 % of control

COC(=O)CCCCCCCCCCCC1C=CCC1 (configuration not stated)
inactive: [10] 105 % of control | [11] 100 % of control | [12] 104 % of control

COc1ccc(OC)c(NC(=O)CCCC(=O)CC(=O)C(C)(C)C)c1
inactive: [1] 101 % of control | [2] 104 % of control | [3] 93 % of control

Cc1c([N+](=O)[O-])c(=O)oc2c(C)c3occc(=O)c3cc12
inactive: dose: 100.0 mg/kg/injection, schedule: Q01DX001 (ip), vehicle: saline with Tween-80 89 % of control | dose: 200.0 mg/kg/injection, schedule: Q01DX001 (ip), vehicle: saline with Tween-80 90 % of control | dose: 400.0 mg/kg/injection, schedule: Q01DX001 (ip), vehicle: saline with Tween-80 86 % of control

COC1=CC(=O)C(O)=C(CC2(C)C(C)CCC3(C)C2CCCC3(C)C)C1=O (configuration not stated)
inactive: [13] 112 % of control | [4] 112 % of control

CC1C(=O)OC(C(O)C(C)(O)C2C(O)CC3C4CC5OC56C(O)C=CC(=O)C6(C)C4CCC32C)C1C (configuration not stated)
inactive: dose: 1.25 mg/kg/injection, schedule: Q01DX009 (ip), vehicle: Klucel (hydroxypropylcellulose) (HPC) 108 % of control | dose: 2.5 mg/kg/injection, schedule: Q01DX009 (ip), vehicle: Klucel (hydroxypropylcellulose) (HPC) 103 % of control | dose: 5.0 mg/kg/injection, schedule: Q01DX009 (ip), vehicle: Klucel (hydroxypropylcellulose) (HPC) 105 % of control | dose: 10.0 mg/kg/injection, schedule: Q01DX009 (ip), vehicle: Klucel (hydroxypropylcellulose) (HPC) 108 % of control

Cn1c(=NCCc2ccccc2)oc2ccc(Cl)cc21
inactive: [6] 103 % of control | [7] 100 % of control | [14] 100 % of control

COC1=CC(=O)C(CCC(C)=O)=CC1=O
inactive: dose: 3.75 mg/kg/injection, schedule: Q01DX005 (ip), vehicle: Klucel (hydroxypropylcellulose) (HPC) 99 % of control | dose: 7.5 mg/kg/injection, schedule: Q01DX005 (ip), vehicle: Klucel (hydroxypropylcellulose) (HPC) 98 % of control | dose: 15.0 mg/kg/injection, schedule: Q01DX005 (ip), vehicle: Klucel (hydroxypropylcellulose) (HPC) 94 % of control

CC(C)C1=CC(=O)C(C)(C2C(O)CC3(C)C4CC=C5C(CCC(O)C5(C)C)C4(C)C(=O)CC23C)O1 (configuration not stated)
inactive: dose: 10.13 mg/kg/injection, schedule: Q01DX005 (ip), vehicle: saline + alcohol 97 % of control | dose: 20.25 mg/kg/injection, schedule: Q01DX005 (ip), vehicle: saline + alcohol 98 % of control | dose: 40.05 mg/kg/injection, schedule: Q01DX005 (ip), vehicle: saline + alcohol 101 % of control | dose: 81.0 mg/kg/injection, schedule: Q01DX005 (ip), vehicle: saline + alcohol 97 % of control

c1ccc2c(c1)Nc1ccc(CN3CCOCC3)cc1S2
inactive: dose: 60.0 mg/kg/injection, schedule: Q01DX005 (ip), vehicle: Klucel (hydroxypropylcellulose) (HPC) 104 % of control | dose: 120.0 mg/kg/injection, schedule: Q01DX005 (ip), vehicle: Klucel (hydroxypropylcellulose) (HPC) 97 % of control | dose: 240.0 mg/kg/injection, schedule: Q01DX005 (ip), vehicle: Klucel (hydroxypropylcellulose) (HPC) 92 % of control

O=C(CC(c1ccccc1)C(Sc1ccccc1)(Sc1ccccc1)Sc1ccccc1)c1ccccc1 (configuration not stated)
inactive: [5] 100 % of control | [13] 100 % of control | [4] 100 % of control and 105 % of control

CN(C)c1ccc(/[N+]([O-])=N/N2C(=O)c3ccccc3C2=O)cc1
inactive: dose: 25.0 mg/kg/injection, schedule: Q01DX005 (ip), vehicle: Klucel (hydroxypropylcellulose) (HPC) 105 % of control | dose: 50.0 mg/kg/injection, schedule: Q01DX005 (ip), vehicle: Klucel (hydroxypropylcellulose) (HPC) 97 % of control | dose: 100.0 mg/kg/injection, schedule: Q01DX005 (ip), vehicle: Klucel (hydroxypropylcellulose) (HPC) 101 % of control | dose: 200.0 mg/kg/injection, schedule: Q01DX005 (ip), vehicle: Klucel (hydroxypropylcellulose) (HPC) 110 % of control

Cc1ncc(CO)c(C2NOCc3nscc32)c1O (configuration not stated)
inactive: dose: 3.5 mg/kg/injection, schedule: Q04DX003 (ip), vehicle: saline 100 % of control | dose: 7.0 mg/kg/injection, schedule: Q04DX003 (ip), vehicle: saline 95 % of control | dose: 14.0 mg/kg/injection, schedule: Q04DX003 (ip), vehicle: saline 100 % of control

O=C1CCC(C(=O)O)C(C(=O)O)C1 (configuration not stated)
inactive: dose: 50.0 mg/kg/injection, schedule: Q01DX001 (ip), vehicle: saline 107 % of control | [10] 100 % of control | [11] 101 % of control | [12] 107 % of control

O=[N+]([O-])c1ccc(S(=O)(=O)/N=C/c2ccccc2)cc1
inactive: [15] 96 % of control | [16] 98 % of control | dose: 200.0 mg/kg/injection, schedule: Q01DX009 (ip), vehicle: saline with Tween-80 95 % of control

O=C1NC(=O)C(=Cc2c(Cl)cccc2Cl)C(=O)N1
inactive: [8] 116 % of control | [9] 122 % of control | [15] 122 % of control

Cc1ccc(S(=O)(=O)NN=C2C(C)C(c3ccccc3)NC(c3ccccc3)C2C)cc1 (configuration not stated)
inactive: dose: 200.0 mg/kg/injection, schedule: Q01DX001 (ip), vehicle: Klucel (hydroxypropylcellulose) (HPC) 88 % of control

O=C1CN(C(=O)Nc2ccccc2)c2ccccc2N1
inactive: [6] 92 % of control | [7] 93 % of control | [14] 90 % of control

CCCCOC(=O)/C=C(\Br)C(=O)OCCCC
inactive: [15] 114 % of control | [16] 124 % of control

CNC(=S)N(C)CCCCN(C)C(=S)NC
inactive: dose: 50.0 mg/kg/injection, schedule: Q01DX009 (ip), vehicle: saline 102 % of control | dose: 100.0 mg/kg/injection, schedule: Q01DX009 (ip), vehicle: saline 105 % of control | dose: 200.0 mg/kg/injection, schedule: Q01DX009 (ip), vehicle: saline 100 % of control

CC(=O)N1c2ccccc2C(O)C1OC(=O)c1cccc(Cl)c1 (configuration not stated)
inactive: [1] 100 % of control | [2] 103 % of control | [3] 89 % of control
